Data taken from the NIST ThermoML archive (doi:10.1016/j.fluid.2014.08.018).

Settings: Liquid, Vibrating tube method

CCC[n+]1ccccc1C.O=S(=O)([N-]S(=O)(=O)C(F)(F)F)C(F)(F)F
Settings | mass density [kg/m3]
283.15 K, 100 kPa | 1478.5
283.15 K, 2500 kPa | 1480.5
283.15 K, 5000 kPa | 1482.1
283.15 K, 7500 kPa | 1483.7
283.15 K, 10000 kPa | 1485.4
283.15 K, 15000 kPa | 1488.6
283.15 K, 20000 kPa | 1491.5
283.15 K, 25000 kPa | 1494.5
283.15 K, 30000 kPa | 1497.3
283.15 K, 35000 kPa | 1500.1
283.15 K, 45000 kPa | 1505.5
283.15 K, 55000 kPa | 1510.5
283.15 K, 65000 kPa | 1515.3
288.15 K, 100 kPa | 1473.7
288.15 K, 2500 kPa | 1475.7
288.15 K, 5000 kPa | 1477.3
288.15 K, 7500 kPa | 1479
288.15 K, 10000 kPa | 1480.6
288.15 K, 15000 kPa | 1483.7
288.15 K, 20000 kPa | 1486.8
288.15 K, 25000 kPa | 1489.9
288.15 K, 30000 kPa | 1492.7
288.15 K, 35000 kPa | 1495.6
288.15 K, 45000 kPa | 1500.9
288.15 K, 55000 kPa | 1506
288.15 K, 65000 kPa | 1510.9
293.15 K, 100 kPa | 1469
293.15 K, 2500 kPa | 1470.9
293.15 K, 5000 kPa | 1472.6
293.15 K, 7500 kPa | 1474.3
293.15 K, 10000 kPa | 1475.9
293.15 K, 15000 kPa | 1479.2
293.15 K, 20000 kPa | 1482.3
293.15 K, 25000 kPa | 1485.3
293.15 K, 30000 kPa | 1488.3
293.15 K, 35000 kPa | 1491.1
293.15 K, 45000 kPa | 1496.6
293.15 K, 55000 kPa | 1501.8
293.15 K, 65000 kPa | 1506.7
298.15 K, 100 kPa | 1464.2
298.15 K, 2500 kPa | 1466.1
298.15 K, 5000 kPa | 1467.8
298.15 K, 7500 kPa | 1469.6
298.15 K, 10000 kPa | 1471.2
298.15 K, 15000 kPa | 1474.5
298.15 K, 20000 kPa | 1477.7
298.15 K, 25000 kPa | 1480.8
298.15 K, 30000 kPa | 1483.8
298.15 K, 35000 kPa | 1486.6
298.15 K, 45000 kPa | 1492.2
298.15 K, 55000 kPa | 1497.4
298.15 K, 65000 kPa | 1502.5
303.15 K, 100 kPa | 1459.5
303.15 K, 2500 kPa | 1461.5
303.15 K, 5000 kPa | 1463.2
303.15 K, 7500 kPa | 1465
303.15 K, 10000 kPa | 1466.6
303.15 K, 15000 kPa | 1470
303.15 K, 20000 kPa | 1473.2
303.15 K, 25000 kPa | 1476.4
303.15 K, 30000 kPa | 1479.5
303.15 K, 35000 kPa | 1482.4
303.15 K, 45000 kPa | 1488
303.15 K, 55000 kPa | 1493.3
303.15 K, 65000 kPa | 1498.4
308.15 K, 100 kPa | 1454.8
308.15 K, 2500 kPa | 1456.8
308.15 K, 5000 kPa | 1458.5
308.15 K, 7500 kPa | 1460.3
308.15 K, 10000 kPa | 1462
308.15 K, 15000 kPa | 1465.4
308.15 K, 20000 kPa | 1468.7
308.15 K, 25000 kPa | 1471.9
308.15 K, 30000 kPa | 1475
308.15 K, 35000 kPa | 1478
308.15 K, 45000 kPa | 1483.7
308.15 K, 55000 kPa | 1489.1
308.15 K, 65000 kPa | 1494.2
313.15 K, 100 kPa | 1450
313.15 K, 2500 kPa | 1452.1
313.15 K, 5000 kPa | 1453.9
313.15 K, 7500 kPa | 1455.8
313.15 K, 10000 kPa | 1457.5
313.15 K, 15000 kPa | 1461
313.15 K, 20000 kPa | 1464.3
313.15 K, 25000 kPa | 1467.5
313.15 K, 30000 kPa | 1470.7
313.15 K, 35000 kPa | 1473.7
313.15 K, 45000 kPa | 1479.5
313.15 K, 55000 kPa | 1485
313.15 K, 65000 kPa | 1490.2
318.15 K, 100 kPa | 1445.4
318.15 K, 2500 kPa | 1447.4
318.15 K, 5000 kPa | 1449.3
318.15 K, 7500 kPa | 1451.1
318.15 K, 10000 kPa | 1452.9
318.15 K, 15000 kPa | 1456.4
318.15 K, 20000 kPa | 1459.9
318.15 K, 25000 kPa | 1463.1
318.15 K, 30000 kPa | 1466.4
318.15 K, 35000 kPa | 1469.4
318.15 K, 45000 kPa | 1475.3
318.15 K, 55000 kPa | 1480.8
318.15 K, 65000 kPa | 1486.1
323.15 K, 100 kPa | 1440.7
323.15 K, 2500 kPa | 1442.8
323.15 K, 5000 kPa | 1444.7
323.15 K, 7500 kPa | 1446.7
323.15 K, 10000 kPa | 1448.5
323.15 K, 15000 kPa | 1452
323.15 K, 20000 kPa | 1455.5
323.15 K, 25000 kPa | 1458.7
323.15 K, 30000 kPa | 1462
323.15 K, 35000 kPa | 1465.2
323.15 K, 45000 kPa | 1471.2
323.15 K, 55000 kPa | 1476.9
323.15 K, 65000 kPa | 1482.1
328.15 K, 100 kPa | 1436.1
328.15 K, 2500 kPa | 1438.3
328.15 K, 5000 kPa | 1440.2
328.15 K, 7500 kPa | 1442.1
328.15 K, 10000 kPa | 1443.9
328.15 K, 15000 kPa | 1447.5
328.15 K, 20000 kPa | 1451
328.15 K, 25000 kPa | 1454.5
328.15 K, 30000 kPa | 1457.8
328.15 K, 35000 kPa | 1460.9
328.15 K, 45000 kPa | 1467.1
328.15 K, 55000 kPa | 1472.7
328.15 K, 65000 kPa | 1478.1
333.15 K, 100 kPa | 1431.4
333.15 K, 2500 kPa | 1433.6
333.15 K, 5000 kPa | 1435.5
333.15 K, 7500 kPa | 1437.5
333.15 K, 10000 kPa | 1439.4
333.15 K, 15000 kPa | 1443.1
333.15 K, 20000 kPa | 1446.6
333.15 K, 25000 kPa | 1450.1
333.15 K, 30000 kPa | 1453.4
333.15 K, 35000 kPa | 1456.7
333.15 K, 45000 kPa | 1462.8
333.15 K, 55000 kPa | 1468.6
333.15 K, 65000 kPa | 1474.2
